Experimental data reported in ChEMBL document CHEMBL1134218, “Sialidase inhibitors related to zanamivir. Further SAR studies of 4-amino-4H-pyran-2-carboxylic acid-6-propylamides” (Bioorg Med Chem Lett, 2001).
In brackets after ≈: the same amount, converted by molar mass.

How the values were obtained:
[1] = tested on: Influenza B virus; test: Concentration required for reduction of plaque against influenza B; type: functional, organism-based, unidentified influenza virus
[2] = tested on: Influenza A virus; test: Concentration required for reduction of plaque against influenza A; type: functional, organism-based, unidentified influenza virus
[3] = Influenza B virus, read-out: IC50
[4] = Influenza A virus, read-out: IC50

SMILES | IC50 [1, 3] [ng/mL] | IC50 [2, 4] [ng/mL] | IC50 [1] [ng/mL] | IC50 [2] [ng/mL]
CCCN(CCc1ccccc1)C(=O)[C@@H]1OC(C(=O)O)=C[C@H](O)[C@H]1NC(C)=O | > 100000 | 5 (≈ 12.8 nM) |  | 
CCCN(CCC)C(=O)[C@@H]1OC(C(=O)O)=C[C@H](N)[C@H]1NC(C)=O | 700 (≈ 2140 nM) | 2 (≈ 6.11 nM) |  | 
CCCN(CCC)C(=O)[C@@H]1OC(C(=O)O)=C[C@H](N)[C@H]1NC(=O)CC | 3000 (≈ 8790 nM) | 0.2 (≈ 0.586 nM) |  | 
CCCN(CCc1ccccc1)C(=O)[C@@H]1OC(C(=O)O)=C[C@H](N)[C@H]1NC(=O)C(F)(F)F | 56 (≈ 126 nM) | 4 (≈ 9.02 nM) |  | 
CCCN(CCC)C(=O)[C@@H]1OC(C(=O)O)=C[C@H](N)[C@H]1NC(=O)C(F)(F)F | 300 (≈ 787 nM) | 0.01 (≈ 0.0262 nM) |  | 
CCCN(CCc1ccccc1)C(=O)[C@@H]1OC(C(=O)O)=C[C@H](N)[C@H]1NC(C)=O | 280 (≈ 719 nM) | 30 (≈ 77 nM) | 300 (≈ 770 nM) | 30 (≈ 77 nM)
CC(=O)N[C@H]1[C@H]([C@H](O)[C@H](O)CO)OC(C(=O)O)=C[C@@H]1NC(=N)N [ZANAMIVIR] | 2 (≈ 6.02 nM) | 5 (≈ 15 nM) |  | 
